Results taken from paper PMC10535864, “Novel Aminopyrimidine-2,4-diones, 2-Thiopyrimidine-4-ones, and 6-Arylpteridines as Dual-Target Inhibitors of BRD4/PLK1: Design, Synthesis, Cytotoxicity, and Computational Studies” (Pharmaceuticals, 2023).

Key:
[1] = tested on: MDA-MB-231 breast cancer cells; assay: MTT cytotoxicity assay, MDA-MB-231; assay type: cell-based; conditions: MDA-MB-231, MTT
Procedure, shortened: (§1)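 Cells seeded at 1 X 10^5 cells/mL and grown 24 h at 37°C to a monolayer, then exposed to two-fold compound dilutions in RPMI with 2% serum, six doses. MTT added for 4 h at 37°C, formazan dissolved in DMSO, OD read at 560 nm minus 620 nm background. IC50 from dose-response.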

[2] = MTT cytotoxicity assay, U-937; assay type: cell-based; conditions: Homo sapiens, U-937, U937, MTT;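 also: Six-dose MTT colorimetric assay on cell monolayers, formazan absorbance read at 560 nm with 620 nm background removed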
Protocol: (§2) All newly synthetic compounds were tested for cytotoxicity using a six-dose MTT colorimetric assay on three cancer cell lines; namely, breast cancer cells (MDA-MB-231), colorectal adenocarcinoma cells (HT-29) and renal cancer cells (U-937).
(§3) Using a six-dose MTT colorimetric assay [44, 66], all new synthetic compounds were tested for cytotoxicity against three cancer cell lines: MDA-MB-231 breast cancer cells, HT-29 colorectal adenocarcinoma cells, and U-937 renal cancer cells. […] These cell lines were supplied by ATCC (American Type Culture Collection) via the Holding company for biological products and vaccines (VACSERA, Cairo, Egypt). The reference control used was Methotrexate.
(§4) Using a six-dose MTT colorimetric assay [44, 66], allnew synthetic compounds were tested for cytotoxicity against three cancer cell lines: MDA-MB-231 breast cancer cells,HT-29 colorectal adenocarcinoma cells, and U-937 renal
(§5) The cell lines were supplied by ATCC (American Type Culture Collection). The reference control used was Methotrexate. The cytotoxic activities of the examined compounds were quantified by inoculating a 96-well tissue culture plate with 1 X 10^5 cells / mL (100 uL/well) and incubating it at 37°C for 24 hours to develop a complete monolayer sheet. After forming a confluent sheet of cells, the growth medium was decanted from 96-well microtiter plates, and the cell monolayer was washed twice with wash media. Two-fold dilutions of tested samples were made in RPMI medium with 2% serum (maintenance medium), and 0.1 mL of each dilution was tested in different wells, with three wells serving as controls and receiving only maintenance medium. Following that, the plate was incubated at 37°C and examined. Cells were investigated for any physical signs of toxicity, such as partial or complete monolayer loss, rounding, shrinkage, or cell granulation. MTT solution was prepared (5mg/ml in PBS) (BIO BASIC CANADA INC), and 20 uL MTT solution was added to each well. After 5 minutes on a shaking table at150 rpm to thoroughly mix the MTT into the media, it was incubated (37C, 5% CO2) for 4 hours to allow the MTT to be metabolized. Formazan (MTT metabolic product) was resuspended in 200 uL DMSO and shaken at 150 rpm for 5 minutes to thoroughly mix the formazan into the solvent. The optical density was measured at 560 nm, and the background was subtracted at 620 nm. Finally, the IC50 of the test compound in comparison to the reference was calculated using the GraphPad Prism software.

[3] = tested on: U-937 renal cancer cells; assay: MTT cytotoxicity assay, U-937; assay type: cell-based; conditions: MTT; for Toxicity %: U937;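 as to all read-outs here: Six-dose MTT colorimetric assay on cell monolayers, formazan absorbance read at 560 nm with 620 nm background removed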
Protocol: as §2, §3, §4, §5

[4] = tested on: HT-29 colorectal adenocarcinoma cells; assay: MTT cytotoxicity assay, HT-29; assay type: cell-based; conditions: MTT
Procedure, shortened: as §1

[5] = biological target: human recombinant PLK1 (Homo sapiens, UniProt P53350); assay: PLK1 inhibitory activity assay (ADP-Glo Kinase Assay); assay type: biochemical; conditions: for %inh: PLK1 Lab Report
Sequence of human recombinant PLK1 (P53350 whole entry): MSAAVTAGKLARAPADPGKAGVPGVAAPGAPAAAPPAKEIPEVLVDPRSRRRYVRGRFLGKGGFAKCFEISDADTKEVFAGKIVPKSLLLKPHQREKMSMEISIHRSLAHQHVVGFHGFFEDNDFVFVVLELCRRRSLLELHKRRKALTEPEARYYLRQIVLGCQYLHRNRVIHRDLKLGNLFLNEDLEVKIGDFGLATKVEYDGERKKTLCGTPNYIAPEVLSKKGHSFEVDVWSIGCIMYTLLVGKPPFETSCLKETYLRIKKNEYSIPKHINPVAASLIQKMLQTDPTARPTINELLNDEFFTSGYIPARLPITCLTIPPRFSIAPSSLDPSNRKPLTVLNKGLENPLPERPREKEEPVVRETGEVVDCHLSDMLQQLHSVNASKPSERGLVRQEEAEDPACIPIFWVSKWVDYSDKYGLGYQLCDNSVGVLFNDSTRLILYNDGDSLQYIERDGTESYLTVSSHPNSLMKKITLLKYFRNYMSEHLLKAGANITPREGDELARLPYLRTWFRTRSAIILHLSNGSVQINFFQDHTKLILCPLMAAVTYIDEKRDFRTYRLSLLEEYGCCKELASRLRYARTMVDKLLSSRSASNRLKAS
Protocol: The BRD4 and PLK1 inhibitory assays were carried out in vitro in accordance with the manufacturer’s instructions; BRD4 was assessed using AlphaLISA Bromodomain Assay Protocol, and PLK1 kinase was tested using the ADP-Glo™ Kinase Assay Protocol, as detailed in the Supplementary file. […]
1.2.2. PLK1 inhibitory activity assay
The kinase reaction was performed with active human recombinant PLK1 and combined with the substrate dephosphorylated casein (positive control) using 1 X reaction buffer (40 mM Tris-HCl pH 7.4, 20 mM MgCl2, 0.1 mg/mL BSA, 1 mM DTT) and 20 μM ATP. The reaction was incubated at30°C for 45 minutes. The amount of ATP transferred was calculated using […] reagent from Promega according to the manufacturer’s instruction.
A plate-reading luminometer isused to measure the luminescence. […]

[6] = MTT cytotoxicity assay, normal Vero cells; assay type: cell-based; conditions: African green monkey, normal Vero cells, MTT
Protocol: as §3
1.1.In-vitro cytotoxicity screening
as §4, §5

[7] = tested on: normal Vero cells; assay: MTT cytotoxicity assay, normal Vero cells; assay type: cell-based; conditions: Vero, MTT
Protocol: as §3
1.1.In-vitro cytotoxicity screening
as §4, §5

[8] = biological target: T1, BRD4 (BD2) (Homo sapiens, UniProt O60885); assay: BRD4 inhibitory activity assay (AlphaLISA Bromodomain Assay); assay type: binding; conditions: for %inh: BRD4 Lab Report;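 as to all read-outs here: in vitro inhibition of recombinant BRD4 BD2 bromodomain binding to a BET bromodomain ligand, read by AlphaLISA proximity signal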
T1 construct: BRD4 (BD2) should be thawed on ice; purchased

Nc1c(/N=C(/CBr)c2ccccc2)c(=O)[nH]c(=O)n1Cc1ccccc1 [Compound 4, (E)-6-Amino-1-benzyl-5-((2-bromo-1-phenylethylidene)amino)pyrimidine-2,4(1H,3H)-dione]
IC50 ([1]; Homo sapiens, mean of three independent experiments ± SD, read-out: IC50 Value MDA-MB-231): 780 ± 10 nM
viability at 0.312 µM ([1]; Homo sapiens, 0.312 uM): 99.7%
viability at 0.625 µM ([1]; Homo sapiens, 0.625 uM): 57.8%
viability at 1.25 µM ([1]; Homo sapiens, 1.25 uM): 7.14%
viability at 2.5 µM ([1]; Homo sapiens, 2.5 uM): 8.02%
viability at 5 µM ([1]; Homo sapiens, 5 uM): 5.1%
viability at 10 µM ([1]; Homo sapiens, 10 uM): 4.7%
Toxicity % ([1]; 0.312 uM): 0.3103%
Toxicity % ([1]; 0.625 uM): 42.24%
Toxicity % ([1]; 1.25 uM): 92.86%
Toxicity % ([1]; 2.5 uM): 91.98%
Toxicity % ([1]; 5 uM): 94.9%
Toxicity % ([1]; 10 uM): 95.3%
viability at 0.312 µM ([2]; 0.312 uM): 97.3%
viability at 0.625 µM ([2]; 0.625 uM): 83%
viability at 1.25 µM ([2]; 1.25 uM): 24.8%
viability at 2.5 µM ([2]; 2.5 uM): 8.01%
viability at 5 µM ([2]; 5 uM): 7.46%
viability at 10 µM ([2]; 10 uM): 7.9%
IC50 ([3]; Homo sapiens, U-937, mean of three independent experiments ± SD, read-out: IC50 Value U-937): 950 nM
Toxicity % ([3]; 0.312 uM): 2.669%
Toxicity % ([3]; 0.625 uM): 16.99%
Toxicity % ([3]; 1.25 uM): 75.22%
Toxicity % ([3]; 2.5 uM): 91.99%
Toxicity % ([3]; 5 uM): 92.54%
Toxicity % ([3]; 10 uM): 92.1%
Toxicity % ([4]; HT29, 0.312 uM): 0.1292%
Toxicity % ([4]; HT29, 0.625 uM): 48.06%
Toxicity % ([4]; HT29, 1.25 uM): 92.12%
Toxicity % ([4]; HT29, 2.5 uM): 92.46%
Toxicity % ([4]; HT29, 5 uM): 92.76%
Toxicity % ([4]; HT29, 10 uM): 93.84%
viability at 0.312 µM ([4]; Homo sapiens, HT-29, HT29, 0.312 uM): 99.9%
viability at 0.625 µM ([4]; Homo sapiens, HT-29, HT29, 0.625 uM): 51.9%
viability at 1.25 µM ([4]; Homo sapiens, HT-29, HT29, 1.25 uM): 7.88%
viability at 2.5 µM ([4]; Homo sapiens, HT-29, HT29, 2.5 uM): 7.54%
viability at 5 µM ([4]; Homo sapiens, HT-29, HT29, 5 uM): 7.24%
viability at 10 µM ([4]; Homo sapiens, HT-29, HT29, 10 uM): 6.16%
IC50 ([4]; Homo sapiens, HT-29, mean of three independent experiments ± SD, read-out: IC50 Value HT-29): 760 nM
%inh ([5]; conc 0.01 (unit not given)): 34%
%inh ([5]; conc 0.1 (unit not given)): 46%
%inh ([5]; conc 1 (unit not given)): 70%
%inh ([5]; conc 10 (unit not given)): 88%
%inh ([5]; conc 100 (unit not given)): 95%
IC50 ([5]; mean of three independent experiments, read-out: PLK1 IC50 ± SD): 94 ± 4 nM
IC50 ([6]; mean of three independent experiments ± SD, read-out: In Vitro Cytotoxicity against Normal Cells IC50 Value, Vero Cells): 1730 ± 30 nM
viability at 0.312 µM ([6]; Vero, 0.312 uM): 100%
viability at 0.625 µM ([6]; Vero, 0.625 uM): 92.9%
viability at 1.25 µM ([6]; Vero, 1.25 uM): 63.6%
viability at 2.5 µM ([6]; Vero, 2.5 uM): 23.6%
viability at 5 µM ([6]; Vero, 5 uM): 6.63%
viability at 10 µM ([6]; Vero, 10 uM): 2.28%
Toxicity % ([7]; 0.312 uM): 0%
Toxicity % ([7]; 0.625 uM): 7.106%
Toxicity % ([7]; 1.25 uM): 36.41%
Toxicity % ([7]; 2.5 uM): 76.37%
Toxicity % ([7]; 5 uM): 93.37%
Toxicity % ([7]; 10 uM): 97.72%
%inh ([8]; conc 0.01 (unit not given)): 41%
%inh ([8]; conc 0.1 (unit not given)): 58%
%inh ([8]; conc 1 (unit not given)): 75%
%inh ([8]; conc 10 (unit not given)): 91%
%inh ([8]; conc 100 (unit not given)): 95%
IC50 ([8]; mean of three independent experiments, read-out: BRD4 IC50 ± SD): 29 ± 1 nM
